Experimental data reported in patent US11834424B2, “Compounds useful as chaperone-mediated autophagy modulators” (ALBERT EINSTEIN COLLEGE OF MEDICINE, priority 2018, dated 2023).
Several values for one entry are separate records, joined by “and”; a condition that tells them apart may be missing. Equal entries are not always repeated. Where two headings read alike, the source gives them in different places.

Assay: Pharmacokinetics (plasma and brain levels) in ICR (CD-1) mice
Format: in vivo
Conditions: i.v. 1 mg/kg, 1 mg/kg
Method: ICR (CD-1) male mice were fasted at least three horns and water was available ad libitum before the study. Animals were housed in a controlled environment, target conditions: temperature 18 to 29° C., relative humidity 30 to 70%. Temperature and relative humidity was monitored daily. An electronic time controlled lighting system was used to provide a 12 h light/12 h dark cycle. 3 mice for each indicated time point. ICR (CD-1) mice were administered CA77 at 1 mg/kg i.v. and 30 mg/kg p.o. or CA77.1 at 1 mg/kg i.v. (FIG. 2A) and 10 mg/kg p.o. (FIG. 2B). Three (3) mice were included in each dosage and time group. Mice were sacrificed and plasma and brains were obtained at 0.083, 0.25, 0.50, 1.0, 2.0, 4.0, 8.0, and 24.0 hours after administration and drug concentration determined using LC-MS/MS. Brains were removed, homogenized with a tissue homogenizer in cold 5% w/v BSA in phosphate buffer saline (PBS). A 100 microliter aliquots of brain samples were dispensed in to glass culture tubes and mixed with ethyl acetate (800 μl), vortexed, and centrifuged. The organic layer was transferred to a fresh culture tube, dried under nitrogen, and reconstituted in mobile phase for quantitation. Pharmacokinetic parameters were determined by standard methods using Phoenix WinNonlin 6.3 software.
Tables 3A and 3B provide the concentrations of CA77 in ICR (CD-1) mouse plasma (3A) and mouse brain (3B) following i.v. administration of 1 mg/kg CA77. Table 3C provides the brain/plasma ratio of CA77 following i.v. administration of 1 mg/kg CA77. Shaded cells indicate data not included in statistics due to aberrant value. BLQ=Below Limit of Quantitation.
Tables 5A and 5B provide the concentrations of CA77.1 in ICR (CD-1) mouse plasma (5A) and mouse brain (5B) following i.v. administration of 1 mg/kg CA77.1. Table 5C provides the brain/plasma ratio of CA77.1 following i.v. administration of 1 mg/kg CA77.1. The plasma and brain pharmacokinetic parameters for CA77.1 are provided in Table 6. *—cells contain data not present in the statistics.

In the case of CC(=O)Nc1ccc(C2=Nc3ccc(Cl)cc3OC2)cc1 [CA77, reference compound], the “Conc. in brain, individual animal” value (mouse brain, 0.083 h) is reported as 2943 ng/g and *693 ng/g, the “Conc. in brain, individual animal” value (mouse brain, 0.25 h) is reported as 3391 ng/g and 5173 ng/g and 2397 ng/g and the “Conc. in brain, individual animal” value (mouse brain, 0.50 h) is reported as 2795 ng/g and 2950 ng/g. For the same molecule, the “Conc. in brain, individual animal” value (mouse brain, 1.00 h) was 2651 ng/g and 2154 ng/g, the “Conc. in brain, individual animal” value (mouse brain, 2.00 h) was 411 ng/g and 792 ng/g and the “Conc. in brain, individual animal” value (mouse brain, 4.00 h) was 112 ng/g and 124 ng/g. For the same molecule, the “Conc. in brain, individual animal” value (mouse brain, 8.00 h) was 7.74 ng/g and 27.5 ng/g and 41.4 ng/g, the “Conc. in brain, individual animal” value (mouse brain, 24.0 h) was 2.68 ng/g and 4.25 ng/g and 2.07 ng/g and the “Conc. in plasma, individual animal” value (mouse plasma, 0.083 h) was 41.4 ng/mL and *14 ng/mL. For the same molecule, the “Conc. in plasma, individual animal” value (mouse plasma, 0.25 h) was 27.2 ng/mL and 43.9 ng/mL and 19.5 ng/mL, the “Conc. in plasma, individual animal” value (mouse plasma, 0.50 h) was 14.6 ng/mL and 21.9 ng/mL and the “Conc. in plasma, individual animal” value (mouse plasma, 1.00 h) was 21.5 ng/mL and 15.3 ng/mL. For the same molecule, the “Conc. in plasma, individual animal” value (mouse plasma, 2.00 h) was 7.54 ng/mL and 1.71 ng/mL and 3.84 ng/mL, the “Conc. in plasma, individual animal” value (mouse plasma, 4.00 h) was “BLQ and 0.533 ng/mL” and the “Brain/Plasma ratio, individual animal” value (mouse, 0.083 h) was 71.1 and *48.9. For the same molecule, the “Brain/Plasma ratio, individual animal” value (mouse, 0.25 h) was 118 and 123, the “Brain/Plasma ratio, individual animal” value (mouse, 0.50 h) was 192 and 135 and the “Brain/Plasma ratio, individual animal” value (mouse, 1.00 h) was 123 and 141. For the same molecule, the “Brain/Plasma ratio, individual animal” value (mouse, 2.00 h) was 102 and 240 and 206, the “Brain/Plasma ratio, individual animal” value (mouse, 4.00 h) was 232 and the concentration at 0.083 h (male, ICR (CD-1), mouse, brain, iv, mouse brain, 0.083 h, read-out: Conc. in brain, Mean) was 3360 ng/g. For the same molecule, the concentration at 0.083 h (male, ICR (CD-1), mouse, brain, iv, mouse brain, 0.083 h, read-out: Conc. in brain, individual animal) was 3770 ng/g, the concentration at 0.25 h (male, ICR (CD-1), mouse, brain, iv, mouse brain, 0.25 h, read-out: Conc. in brain, Mean) was 3650 ng/g and the concentration at 0.5 h (male, ICR (CD-1), mouse, brain, iv, mouse brain, 0.50 h, read-out: Conc. in brain, Mean) was 2650 ng/g. The concentration at 0.5 h (male, ICR (CD-1), mouse, brain, iv, mouse brain, 0.50 h, read-out: Conc. in brain, individual animal) was 2200 ng/g, the concentration at 1 h (male, ICR (CD-1), mouse, brain, iv, mouse brain, 1.00 h, read-out: Conc. in brain, Mean) was 2460 ng/g and the concentration at 1 h (male, ICR (CD-1), mouse, brain, iv, mouse brain, 1.00 h, read-out: Conc. in brain, individual animal) was 2760 ng/g. It also gave a concentration at 2 h (male, ICR (CD-1), mouse, brain, iv, mouse brain, 2.00 h, read-out: Conc. in brain, Mean) of 659 ng/g, a concentration at 2 h (male, ICR (CD-1), mouse, brain, iv, mouse brain, 2.00 h, read-out: Conc. in brain, individual animal) of 773 ng/g and a concentration at 4 h (male, ICR (CD-1), mouse, brain, iv, mouse brain, 4.00 h, read-out: Conc. in brain, Mean) of 104 ng/g. For the same molecule, the concentration at 4 h (male, ICR (CD-1), mouse, brain, iv, mouse brain, 4.00 h, read-out: Conc. in brain, individual animal) was 76 ng/g, the concentration at 8 h (male, ICR (CD-1), mouse, brain, iv, mouse brain, 8.00 h, read-out: Conc. in brain, Mean) was 25.6 ng/g and the concentration at 24 h (male, ICR (CD-1), mouse, brain, iv, mouse brain, 24.0 h, read-out: Conc. in brain, Mean) was 3 ng/g. For the same molecule, the Kp at 0.083 h (male, ICR (CD-1), mouse, brain/plasma, iv, mouse, 0.083 h, read-out: Brain/Plasma ratio, Mean) was 71.2, the Kp at 0.083 h (male, ICR (CD-1), mouse, brain/plasma, iv, mouse, 0.083 h, read-out: Brain/Plasma ratio, individual animal) was 71.3 and the Kp at 0.25 h (male, ICR (CD-1), mouse, brain/plasma, iv, mouse, 0.25 h, read-out: Brain/Plasma ratio, Mean) was 122. The Kp at 0.25 h (male, ICR (CD-1), mouse, brain/plasma, iv, mouse, 0.25 h, read-out: Brain/Plasma ratio, individual animal) was 125, the Kp at 0.5 h (male, ICR (CD-1), mouse, brain/plasma, iv, mouse, 0.50 h, read-out: Brain/Plasma ratio, Mean) was 151 and the Kp at 0.5 h (male, ICR (CD-1), mouse, brain/plasma, iv, mouse, 0.50 h, read-out: Brain/Plasma ratio, individual animal) was 128. It also gave a Kp at 1 h (male, ICR (CD-1), mouse, brain/plasma, iv, mouse, 1.00 h, read-out: Brain/Plasma ratio, Mean) of 159, a Kp at 1 h (male, ICR (CD-1), mouse, brain/plasma, iv, mouse, 1.00 h, read-out: Brain/Plasma ratio, individual animal) of 178 and a Kp at 2 h (male, ICR (CD-1), mouse, brain/plasma, iv, mouse, 2.00 h, read-out: Brain/Plasma ratio, Mean) of 183. It also gave a Kp at 4 h (male, ICR (CD-1), mouse, brain/plasma, iv, mouse, 4.00 h, read-out: Brain/Plasma ratio, Mean) of 210, a Kp at 4 h (male, ICR (CD-1), mouse, brain/plasma, iv, mouse, 4.00 h, read-out: Brain/Plasma ratio, individual animal) of 188 and a concentration at 0.083 h (male, ICR (CD-1), mouse, plasma, iv, mouse plasma, 0.083 h, read-out: Conc. in plasma, Mean) of 47.1 ng/mL. It also gave a concentration at 0.083 h (male, ICR (CD-1), mouse, plasma, iv, mouse plasma, 0.083 h, read-out: Conc. in plasma, individual animal) of 52.9 ng/mL, a concentration at 0.25 h (male, ICR (CD-1), mouse, plasma, iv, mouse plasma, 0.25 h, read-out: Conc. in plasma, Mean) of 30.2 ng/mL and a concentration at 0.5 h (male, ICR (CD-1), mouse, plasma, iv, mouse plasma, 0.50 h, read-out: Conc. in plasma, Mean) of 17.9 ng/mL. The concentration at 0.5 h (male, ICR (CD-1), mouse, plasma, iv, mouse plasma, 0.50 h, read-out: Conc. in plasma, individual animal) was 17.2 ng/mL, the concentration at 1 h (male, ICR (CD-1), mouse, plasma, iv, mouse plasma, 1.00 h, read-out: Conc. in plasma, Mean) was 15.4 ng/mL and the concentration at 1 h (male, ICR (CD-1), mouse, plasma, iv, mouse plasma, 1.00 h, read-out: Conc. in plasma, individual animal) was 15.5 ng/mL. For the same molecule, the concentration at 2 h (male, ICR (CD-1), mouse, plasma, iv, mouse plasma, 2.00 h, read-out: Conc. in plasma, Mean) was 4.37 ng/mL, the concentration at 4 h (male, ICR (CD-1), mouse, plasma, iv, mouse plasma, 4.00 h, read-out: Conc. in plasma, Mean) was 0.565 ng/mL and the concentration at 4 h (male, ICR (CD-1), mouse, plasma, iv, mouse plasma, 4.00 h, read-out: Conc. in plasma, individual animal) was 0.597 ng/mL.
